US20230107941A1, “HEPATITIS B CAPSID ASSEMBLY MODULATORS” (Venatorx Pharmaceuticals, Inc., priority 2019, published 2023)
Like-named read-outs stand apart in the source and are kept apart here.

Legend:
[1] = tested on: HBV; assay: In vitro antiviral assay: anti-HBV replication in HepAD38 cells (extracellular HBV DNA by QPCR); assay type: cell-based, hepatitis B virus (genotype D, serotype ayw); conditions: 7 days incubation, extracellular HBV DNA by QPCR, read-out: Anti-HBV EC50
How it was run: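 HepG2-derived HepAD38 cells (HBV genotype D, ayw, tet-repressible CMV) induced by tetracycline withdrawal, treated 7 days at 37 °C with compound (1 μM to 10 pM, 10-fold steps). Supernatant HBV DNA quantified by QPCR against standard curve, percent of DMSO control; EC50 by 4-parameter fit; entecavir positive control.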

[2] = In vitro cytotoxicity assay (MTT cell viability) in HepG2 cells; assay type: cell-based, human; conditions: human
How it was run: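 CC50 was derived by 4-parameter fit of viability relative to vehicle controls, measured as MTT formazan absorbance at 492 nm after 3–4 h of reagent and DMSO solubilization. Before that, HepG2 cells seeded overnight at 20,000/well were incubated 7 days at 37°C with compound from 30 μM down to 1.0 nM in half-log steps.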

[3] = Hepatitis B virus, HePAD38, 168 h

Structure (SMILES) | EC50 [1, 3] | CC50 at 7 days [2] | EC50 [1]
Cc1cc(NC(=O)c2c(C)c(C(=O)C(=O)N[C@H]3CC[C@@H](O)CC3)n(C)c2C2CCCCC2)ccc1F [Example 119, 2-cyclohexyl-N-(4-fluoro-3-methylphenyl)-5-(2-(((1s,4s)-4-hydroxycyclohexyl)amino)-2-oxoacetyl)-1,4-dimethyl-1H-pyrrole-3-carboxamide] | 500 to 1000 nM | 5000 to 30000 nM | 
Cc1cc(NC(=O)c2c(C)c(C(=O)C(=O)N[C@]3(C)C[C@H](O)C3)n(C)c2-c2nccs2)ccc1F [Example 174, N-(4-fluoro-3-methylphenyl)-5-(2-(((1s,3s)-3-hydroxy-1-methylcyclobutyl)amino)-2-oxoacetyl)-1,4-dimethyl-2-(thiazol-2-yl)-1H-pyrrole-3-carboxamide] | 500 to 1000 nM | > 30000 nM | 
Cc1c(C(=O)Nc2cccc(C#N)c2)c(C)n(C)c1C(=O)C(=O)N[C@]1(C)CC[C@@H](O)CC1 [Example 170, N-(3-cyanophenyl)-5-(2-(((1r,4r)-4-hydroxy-1-methylcyclohexyl)amino)-2-oxoacetyl)-1,2,4-trimethyl-1H-pyrrole-3-carboxamide] | < 50 nM | > 30000 nM | 
Cc1cc(NC(=O)c2c(C)c(C(=O)C(=O)NCC(C)(C)O)n(C)c2C(C)C)ccc1F [Example 113, N-(4-fluoro-3-methylphenyl)-5-(2-((2-hydroxy-2-methylpropyl)amino)-2-oxoacetyl)-2-isopropyl-1,4-dimethyl-1H-pyrrole-3-carboxamide] | 50 to 499 nM | > 30000 nM | 
Cc1c(C(=O)Nc2ccc(F)c(C#N)c2)c(C)n(C)c1C(=O)C(=O)NC(C)(C)C [Example 59, 5-(2-(tert-butylamino)-2-oxoacetyl)-N-(3-cyano-4-fluorophenyl)-1,2,4-trimethyl-1H-pyrrole-3-carboxamide] | < 50 nM | > 30000 nM | 
Cc1cc(NC(=O)c2c(C)c(C(=O)C(=O)Nc3cccnc3N3CCOCC3)n(C)c2C)ccc1F [Example 53, N-(4-fluoro-3-methylphenyl)-1,2,4-trimethyl-5-(2-((2-morpholinopyridin-3-yl)amino)-2-oxoacetyl)-1H-pyrrole-3-carboxamide] | < 50 nM | > 30000 nM | 
Cc1cc(NC(=O)c2c(C3CC3)c(C(=O)C(=O)N[C@H]3CC[C@@H](O)CC3)n(C)c2C)ccc1F [Example 97, 4-cyclopropyl-N-(4-fluoro-3-methylphenyl)-5-(2-(((1s,4s)-4-hydroxycyclohexyl)amino)-2-oxoacetyl)-1,2-dimethyl-1H-pyrrole-3-carboxamide] | 500 to 1000 nM | > 30000 nM | 
Cc1cc(NC(=O)c2c(C(C)C)c(C(=O)C(=O)N[C@H]3CC[C@@H](O)CC3)n(C)c2C)ccc1F [Example 92, N-(4-fluoro-3-methylphenyl)-5-(2-(((1s,4s)-4-hydroxycyclohexyl)amino)-2-oxoacetyl)-4-isopropyl-1,2-dimethyl-1H-pyrrole-3-carboxamide] | 50 to 499 nM | > 30000 nM | 
Cc1cc(NC(=O)c2c(C)c(C(=O)C(=O)N[C@]3(C)CC[C@H](O)CC3)n(C)c2C(C)C)ccc1F [Example 111, N-(4-fluoro-3-methylphenyl)-5-(2-(((1s,4s)-4-hydroxy-1-methylcyclohexyl)amino)-2-oxoacetyl)-2-isopropyl-1,4-dimethyl-1H-pyrrole-3-carboxamide] | < 50 nM | > 30000 nM | 
Cc1cc(NC(=O)c2c(C)c(C(=O)C(=O)Nc3ccccc3N3CCOCC3)n(C)c2C)ccc1F [Example 52, N-(4-fluoro-3-methylphenyl)-1,2,4-trimethyl-5-(2-((2-morpholinophenyl)amino)-2-oxoacetyl)-1H-pyrrole-3-carboxamide] | 50 to 499 nM | 5000 to 30000 nM | 
Cc1cc(NC(=O)c2c(C)c(C(=O)C(=O)N[C@H]3CC[C@@H](S(C)(=O)=O)CC3)n(C)c2-c2ccccn2)ccc1F [Example 156, N-(4-fluoro-3-methylphenyl)-1,4-dimethyl-5-(2-(((1s,4s)-4-(methylsulfonyl)cyclohexyl)amino)-2-oxoacetyl)-2-(pyridin-2-yl)-1H-pyrrole-3-carboxamide] | > 1000 nM | > 30000 nM | 
Cc1cc(NC(=O)c2c(C)c(C(=O)C(=O)NCC(C)(C)O)n(C)c2C2CC2)ccc1F [Example 130, 2-cyclopropyl-N-(4-fluoro-3-methylphenyl)-5-(2-((2-hydroxy-2-methylpropyl)amino)-2-oxoacetyl)-1,4-dimethyl-1H-pyrrole-3-carboxamide] | < 50 nM | 5000 to 30000 nM | 
Cc1c(C(=O)Nc2ccc(F)c(C3CC3)c2)c(C)n(C)c1C(=O)C(=O)N[C@]1(C)CC[C@@H](O)CC1 [Example 136, N-(3-cyclopropyl-4-fluorophenyl)-5-(2-(((1r,4r)-4-hydroxy-1-methylcyclohexyl)amino)-2-oxoacetyl)-1,2,4-trimethyl-1H-pyrrole-3-carboxamide] | < 50 nM | > 30000 nM | 
Cc1cc(NC(=O)c2c(C)c(C(=O)C(=O)NC3(C)CC(OP(=O)(O)O)C3)n(C)c2C)ccc1F (centres unmarked) [Example 63, (1s,3s)-3-(2-(4-((4-fluoro-3-methylphenyl)carbamoyl)-1,3,5-trimethyl-1H-pyrrol-2-yl)-2-oxoacetamido)-3-methylcyclobutyl dihydrogen phosphate] |  | > 30000 nM | > 1000 nM
Cc1cc(NC(=O)c2c(C)c(C(=O)C(=O)N[C@]3(C)C[C@H](O)C3)n(C)c2C2CCCC2)ccc1F [Example 132, 2-cyclopentyl-N-(4-fluoro-3-methylphenyl)-5-(2-(((1s,3s)-3-hydroxy-1-methylcyclobutyl)amino)-2-oxoacetyl)-1,4-dimethyl-1H-pyrrole-3-carboxamide] | 50 to 499 nM | > 30000 nM | 
Cc1cc(NC(=O)c2c(C)c(C(=O)C(=O)NCC(C)(C)O)n(C)c2C2CCCCC2)ccc1F [Example 120, 2-cyclohexyl-N-(4-fluoro-3-methylphenyl)-5-(2-((2-hydroxy-2-methylpropyl)amino)-2-oxoacetyl)-1,4-dimethyl-1H-pyrrole-3-carboxamide] | > 1000 nM | > 30000 nM | 
Cc1c(C(=O)Nc2cccc(Cl)n2)c(C)n(C)c1C(=O)C(=O)N[C@H]1CC[C@@H](O)CC1 [Example 12, N-(6-chloropyridin-2-yl)-5-(2-(((1s,4s)-4-hydroxycyclohexyl)amino)-2-oxoacetyl)-1,2,4-trimethyl-1H-pyrrole-3-carboxamide] | 50 to 499 nM | > 30000 nM | 
Cc1cc(NC(=O)c2c(C3CC3)c(C(=O)C(=O)NCC(C)(C)O)n(C)c2C)ccc1F [Example 99, 4-cyclopropyl-N-(4-fluoro-3-methylphenyl)-5-(2-((2-hydroxy-2-methylpropyl)amino)-2-oxoacetyl)-1,2-dimethyl-1H-pyrrole-3-carboxamide] | > 1000 nM | > 30000 nM | 
CCC1(NC(=O)C(=O)c2c(C)c(C(=O)Nc3ccc(F)c(C)c3)c(C)n2C)CCN(c2cccnn2)CC1 [Example 44, 5-(2-((4-ethyl-1-(pyridazin-3-yl)piperidin-4-yl)amino)-2-oxoacetyl)-N-(4-fluoro-3-methylphenyl)-1,2,4-trimethyl-1H-pyrrole-3-carboxamide] | < 50 nM | > 30000 nM | 
Cc1c(C(=O)NC23CCC(O)(CC2)CC3)c(C)n(C)c1C(=O)C(=O)Nc1cccnc1 [Example 29, N-(4-hydroxybicyclo[2.2.2]octan-1-yl)-1,2,4-trimethyl-5-(2-oxo-2-(pyridin-3-ylamino)acetyl)-1H-pyrrole-3-carboxamide] | > 1000 nM | > 30000 nM | 
Cc1cc(NC(=O)c2c(C)c(C(=O)C(=O)N[C@H]3CC[C@@H](O)CC3)n(C)c2-c2ccsc2)ccc1F [Example 184, N-(4-fluoro-3-methylphenyl)-5-(2-(((1s,4s)-4-hydroxycyclohexyl)amino)-2-oxoacetyl)-1,4-dimethyl-2-(thiophen-3-yl)-1H-pyrrole-3-carboxamide] | > 1000 nM | 5000 to 30000 nM | 
CCc1c(C(=O)Nc2ccc(F)c(C)c2)c(C)n(C)c1C(=O)C(=O)N[C@]1(C)CC[C@H](O)CC1 [Example 7, 4-ethyl-N-(4-fluoro-3-methylphenyl)-5-(2-(((1s,4s)-4-hydroxy-1-methylcyclohexyl)amino)-2-oxoacetyl)-1,2-dimethyl-1H-pyrrole-3-carboxamide] | < 50 nM | > 30000 nM | 
CCc1c(C(=O)Nc2ccc(F)c(C)c2)c(C)n(C)c1C(=O)C(=O)NC1CCN(c2cccnn2)CC1 [Example 91, 4-ethyl-N-(4-fluoro-3-methylphenyl)-1,2-dimethyl-5-(2-oxo-2-((1-(pyridazin-3-yl)piperidin-4-yl)amino)acetyl)-1H-pyrrole-3-carboxamide] | 50 to 499 nM | > 30000 nM | 
CCC1(NC(=O)C(=O)c2c(C)c(C(=O)Nc3ccc(F)c(C)c3)c(C)n2C)CCN(C(=O)c2cn(C)nc2C(F)F)CC1 [Example 40, 5-(2-((1-(3-(difluoromethyl)-1-methyl-1H-pyrazole-4-carbonyl)-4-ethylpiperidin-4-yl)amino)-2-oxoacetyl)-N-(4-fluoro-3-methylphenyl)-1,2,4-trimethyl-1H-pyrrole-3-carboxamide] | < 50 nM | > 30000 nM | 
Cc1c(C(=O)Nc2cc(Cl)nc(Cl)c2)c(C)n(C)c1C(=O)C(=O)N[C@H](C)C(F)(F)F [Example 51, (R)-N-(2,6-dichloropyridin-4-yl)-1,2,4-trimethyl-5-(2-oxo-2-((1,1,1-trifluoropropan-2-yl)amino)acetyl)-1H-pyrrole-3-carboxamide] | < 50 nM | > 30000 nM | 
